The test system of test [1] is ES cell EB5. Description: Nerve cell inducing ratio: colonies with neurite / total colonies, differentiation induction of EB5. The test is classed as cell-based. The settings on record: for activity to induce differentiation of embryonic stem cells into nerve cells by the combination of heparin and vitamin B12: substance added to 0.01% heparin and 100 nmol/l vitamin B12, conclusion of Example 2; for induction of nerve cells (nerve cell inducing ratio): FIG. 2. On the procedure:
In the following Examples, an ES cell EB5 [Nature Genet., 24, 372, (2000)] was used as the embryonic stem cell. The EB5 was inoculated into a dish coated with 0.1% of gelatin and sub-cultured at 37° C. in a CO2 incubator ventilated with 5% of carbon dioxide while keeping its undifferentiated state, using G-MEM (Invitrogen) containing 1% fetal bovine serum (manufactured by JRH Biosciences), 10% Knockout Serum Replacement (manufactured by Invitrogen), 1 mmol/l pyruvic acid (manufactured by Sigma), 0.1 mmol/l nonessential amino acids (manufactured by Invitrogen), 0.1 mmol/12-mercaptoethanol (manufactured by Nacalai Tesque), […] blasticidin (manufactured by Invitrogen) and 2×10^3 U/ml ESGRO (manufactured by Chemicon) (to be referred to as “maintenance medium” hereinafter). When differentiation of EB5 is induced, 2.5×10^3 cells of EB5 were inoculated into a 24 well plate coated with 0.1% of gelatin, a medium prepared by eliminating serum, blasticidin and ESGRO from the maintenance medium (hereinafter referred to as “differentiation induction medium”) was added at 1 ml to respective wells, and the cells were allowed to adhere thereto by incubating at 37° C. for 2 hours. Thereafter, 500 μl of PBS containing various concentration of heparin (manufactured by Sigma) or vitamin B12 (cyanocobalamin, manufactured by Nacalai Tesque) (hereinafter referred to as “test solution 1”) was added thereto and incubated at 37° C. for 14 days without changing the medium. Each test condition was carried out in tandem. In this connection, the concentrations of heparin and vitamin B12 mean their concentrations in the test solution 1. On the 14th day after addition of the test solution 1, colonies having a diameter of 50 μm or more were counted using an optical microscope to calculate the number of total colonies. Also, among the colonies, a colony on which neurite was observed was regarded as a nerve cell colony, and the nerve cell inducing ratio was calculated by the following formula. Nerve cell inducing ratio(%)=the number of nerve cell colonies/the number of total colonies×100 Nerve cell inducing differentiation ratio was examined in the same manner as in Example 1, except that PBS containing 0.01% of heparin and 100 nmol/l of vitamin B12 (hereinafter referred to as “test solution 2”), a test solution 3 containing 0.1 μg/ml of biotin [(+)-biotin, manufactured by Wako Pure Chemical Industries] in the test solution 2, a test solution 4 containing 0.42 μg/ml of K4[Fe(CN)6] (manufactured by Nacalai Tesque) in the test solution 2, a test solution 5 containing 0.081 μg/ml of putrescine (manufactured by Sigma) in the test solution 2, a test solution 6 containing 0.1 μg/ml of biotin, 0.42 μg/ml of K4[Fe(CN)6] and 0.081 μg/ml of putrescine in the test solution 2 and a test solution 7 containing 0.01% of heparin, 0.1 […] of biotin, 0.42 μg/ml of K[Fe(CN)6] and 0.081 μg/ml of putrescine were used instead of the test solution 1 in the above-described Example 1.

Test [2] relates to ES cell EB5. Put plainly: Number of total colonies formed from EB5 after 14 days of differentiation induction culture. It is filed as cell-based. The conditions noted are these: vitamin B12 added; heparin 0% vs 0.01% addition condition; 14 days after commencement of culturing; FIG. 1. On the procedure: In the following Examples, an ES cell EB5 [Nature Genet., 24, 372, (2000)] was used as the embryonic stem cell.
The EB5 was inoculated into a dish coated with 0.1% of gelatin and sub-cultured at 37° C. in a CO2 incubator ventilated with 5% of carbon dioxide while keeping its undifferentiated state, using G-MEM (Invitrogen) containing 1% fetal bovine serum (manufactured by JRH Biosciences), 10% Knockout Serum Replacement (manufactured by Invitrogen), 1 mmol/l pyruvic acid (manufactured by Sigma), 0.1 mmol/l nonessential amino acids (manufactured by Invitrogen), 0.1 mmol/12-mercaptoethanol (manufactured by Nacalai Tesque), […] blasticidin (manufactured by Invitrogen) and 2×10^3 U/ml ESGRO (manufactured by Chemicon) (to be referred to as “maintenance medium” hereinafter). […]
On the 14th day after addition of the test solution 1, colonies having a diameter of 50 μm or more were counted using an optical microscope to calculate the number of total colonies. Also, among the colonies, a colony on which neurite was observed was regarded as a nerve cell colony, and the nerve cell inducing ratio was calculated by the following formula.

`O=C(O)CCCC[C@@H]1SC[C@@H]2NC(=O)N[C@@H]21` [biotin, (+)-biotin]: in the test with ES cell EB5 [1], the “activity to induce differentiation of embryonic stem cells into nerve cells by the combination of heparin and vitamin B12” value is “reinforced”.
On the same count and under the same terms, as for `NCCCCN` [putrescine], the entry is “reinforced”.
For cyanocobalamin [vitamin B12], the “induction of nerve cells (nerve cell inducing ratio)” value in the test on ES cell EB5 [1] (heparin 0% addition condition, vitamin B12 added, 14 days) is reported as “hardly induced”; with ES cell EB5 [1] (heparin 0.01% addition condition, vitamin B12 concentration varied, 14 days), “nerve cells are induced”.
Consider heparin, for which the “number of total colonies” value with ES cell EB5 [2] is given as “difference in the number of total colonies was not found”. For the same compound, the “induction of nerve cells (number of nerve cell colonies)” value in the test with ES cell EB5 [1] (vitamin B12 not added, heparin concentration varied, 14 days, FIG. 3) is given as “hardly induced”.

Source of the values: patent US20080305544A1, “Method of Producing Nerve Cell” (KYOWA HAKKO KOGYO CO., LTD. TOKYO, JAPAN, priority 2004, published 2008).
